Patent US12448373B2, “Azetidinyl-acetamides as CXCR7 inhibitors” (CHEMOCENTRYX, INC., priority 2021, dated 2025)

Target: T1, CXCR7 (Homo sapiens, UniProt P25106)
T1 construct: expressed in transfected cells; host or cells: CHO cells (CHO-CXCR7), transgenes maintained with Hygromycin B and G418
Assay: CXCR7 β-arrestin recruitment assay in CHO-CXCR7 cells (ProLink/EA β-galactosidase complementation), induced by human SDF-1a
Type: cell-based
Details: assay buffer, SDF-1a at EC50 concentration
Summary of the method: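 CHO cells co-expressing ProLink-tagged CXCR7 and β-arrestin-EA were pre-plated overnight, then given compound and human SDF-1α at its same-day EC50. After 1.5 h at 37 °C, complemented β-galactosidase was read from 0.4 mM 3-carboxyumbelliferyl β-D-galactopyranoside (30 min, 37 °C; ex 360/em 465 nm). IC50 by 3-parameter fit.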

T1 sequence (P25106 whole entry): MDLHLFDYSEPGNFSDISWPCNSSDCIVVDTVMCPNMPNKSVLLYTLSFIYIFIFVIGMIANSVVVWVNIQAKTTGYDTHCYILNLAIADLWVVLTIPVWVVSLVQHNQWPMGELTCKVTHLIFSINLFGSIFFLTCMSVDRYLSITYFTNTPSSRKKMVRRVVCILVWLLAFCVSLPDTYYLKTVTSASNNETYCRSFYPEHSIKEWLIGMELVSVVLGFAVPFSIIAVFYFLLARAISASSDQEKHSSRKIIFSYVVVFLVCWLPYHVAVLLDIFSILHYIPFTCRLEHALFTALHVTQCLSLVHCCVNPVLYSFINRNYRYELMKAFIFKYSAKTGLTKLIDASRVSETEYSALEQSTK

Row | SMILES | IC50 [nM]
1 | CC(C)(NC(=O)CC1(NC(=O)c2cc(-c3ccc(F)cc3F)on2)CN([C@H]2CC[C@@](C)(O)CC2)C1)c1ccc(F)cc1Cl [Example 1.252] | 5 to 100
2 | COc1ccccc1C(C)(C)NC(=O)CC1(NC(=O)c2cc(-c3ccc(F)cc3F)on2)CN(C2CCC(C)(O)CC2)C1 (stereo not shown) [Example 1.241] | < 5
3 | CC(C)(NC(=O)CC1(NC(=O)c2cc(-c3ccc(F)cc3F)on2)CN([C@H]2CC[C@](C)(O)CC2)C1)c1ccc(F)cc1Cl [Example 1.253] | 5 to 100
4 | Cc1cccc(C(C)(C)NC(=O)CC2(NC(=O)c3cc(-c4ccc(F)cc4F)on3)CN(CC(C)C)C2)n1 [Example 1.026] | 5 to 100
5 | CC(C)(NC(=O)CC1(NC(=O)c2cc(-c3ccc(F)cc3F)on2)CN([C@H]2CC[C@@](C)(O)CC2)C1)c1cc(F)cc(Cl)c1 [Example 1.123] | < 5
6 | CC(C)(NC(=O)CC1(NC(=O)c2cc(-c3ccc(F)cc3F)on2)CN([C@H]2CC[C@@](C)(O)CC2)C1)c1ccnc(C#N)c1 [Example 1.161] | 5 to 100
7 | CC(C)(NC(=O)CC1(NC(=O)c2cc(-c3ccc(F)cc3F)on2)CN([C@H]2CC[C@@](C)(O)CC2)C1)c1ccc(F)cc1F [Example 1.288] | 5 to 100
8 | COc1cc(C(C)(C)NC(=O)CC2(NC(=O)c3cc(-c4ccc(F)cc4F)on3)CN([C@H]3CC[C@](C)(O)CC3)C2)ccc1F [Example 1.177] | 5 to 100
9 | CC(C)(NC(=O)CC1(NC(=O)c2cc(-c3ccc(F)cc3F)on2)CN([C@H]2CC[C@](C)(O)CC2)C1)c1ccccc1C(F)(F)F [Example 1.291] | < 5
10 | COc1cc(Cl)cc(C(C)(C)NC(=O)CC2(NC(=O)c3cc(-c4ccc(F)cc4F)on3)CN([C@H]3CC[C@@](C)(O)CC3)C2)c1 [Example 1.160] | < 5
11 | Cc1cc(C)nc(C(C)(C)NC(=O)CC2(NC(=O)c3nnc(-c4ccc(F)cc4F)s3)CN([C@H]3CC[C@@](C)(O)CC3)C2)n1 [Example 1.060] | 5 to 100
12 | Cc1cc(C#N)cc(C(C)(C)NC(=O)CC2(NC(=O)c3nnc(-c4ccc(F)cc4F)s3)CN([C@H]3CC[C@](C)(O)CC3)C2)n1 [Example 1.352] | 5 to 100
13 | CC1(CN2CC(CC(=O)NC(C)(C)c3cccc(Cl)c3)(NC(=O)c3cc(-c4ccc(F)cc4F)on3)C2)COC1 [Example 1.216] | < 5
14 | Cc1ccc(C(C)(C)NC(=O)CC2(NC(=O)c3cc(-c4ccc(F)cc4F)on3)CN([C@H]3CC[C@@](C)(O)CC3)C2)c(F)c1 [Example 1.246] | 5 to 100
15 | CC(C)(NC(=O)CC1(NC(=O)c2cc(-c3ccc(F)cc3F)on2)CN(C2CCC3(CC2)COC3)C1)c1ccc(F)cc1F [Example 1.254] | 100 to 1000
16 | Cc1cc(C)nc(C(C)(C)NC(=O)CC2(NC(=O)c3nnc(-c4ccc(F)cc4F)s3)CN([C@H]3CC[C@](C)(O)CC3)C2)n1 [Example 1.061] | < 5
17 | CC(C)(NC(=O)CC1(NC(=O)c2cc(-c3ccc(F)cc3F)on2)CN([C@H]2CC[C@@](C)(O)CC2)C1)c1ccccc1C(F)(F)F [Example 1.292] | < 5
18 | CN1CCC(N2CC(CC(=O)NC(C)(C)c3ccccn3)(NC(=O)c3cc(-c4ccc(F)cc4F)on3)C2)CC1 [Example 1.280] | 100 to 1000
19 | Cn1nc(-c2ccc(F)cc2F)cc1C(=O)NC1(CC(=O)NC(C)(C)c2cccc(Cl)c2)CN([C@H]2CC[C@](C)(O)CC2)C1 [Example 1.059] | 1000 to 20000
20 | CC(C)(NC(=O)CC1(NC(=O)c2cc(-c3ccc(F)cc3F)on2)CN(C2CCC3(CC2)CC3)C1)c1ccccn1 [Example 1.269] | 5 to 100
21 | O=C(CC1(NC(=O)c2cc(-c3ccc(F)cc3F)on2)CN(C2CCCCC2)C1)NC1(c2ccccn2)CC1 [Example 1.306] | 5 to 100
22 | CC(C)(NC(=O)CC1(NC(=O)c2cc(-c3ccc(F)cc3)on2)CN([C@H]2CC[C@](C)(O)CC2)C1)c1ccccc1 [Example 1.091] | 5 to 100
23 | O=C(CC1(NC(=O)c2cc(-c3ccc(F)cc3F)on2)CN(C2CCCCC2)C1)N[C@H](C(=O)O)c1ccccc1 [Example 1.283] | 1000 to 20000
24 | CC(C)(NC(=O)CC1(NC(=O)c2cc(-c3ccc(F)cc3F)on2)CN(CC2CC2)C1)c1ccccn1 [Example 1.327] | 5 to 100
25 | Cc1cc(C#N)cc(C(C)(C)NC(=O)CC2(NC(=O)c3nnc(-c4ccc(F)cc4F)s3)CN([C@H]3CC[C@](C)(O)CC3)C2)n1 [Example 1.337] | < 5
26 | O=C(CC1(NC(=O)c2cc(-c3ccc(F)cc3F)on2)CN(C2CCCCC2)C1)NC1(c2ccccc2)CC1 [Example 1.325] | 5 to 100
27 | CCOc1cccc(C(C)(C)NC(=O)CC2(NC(=O)c3cc(-c4ccc(F)cc4F)on3)CN([C@H]3CC[C@](C)(O)CC3)C2)c1 [Example 1.187] | 5 to 100
28 | CC(C)(NC(=O)CC1(NC(=O)c2cn(-c3ccc(F)cc3F)nn2)CN([C@H]2CC[C@](C)(O)CC2)C1)c1cccc(Cl)c1 [Example 1.067] | 5 to 100
29 | CC(C)(NC(=O)CC1(NC(=O)c2cc(-c3ccc(F)cc3F)on2)CN([C@H]2CC[C@](C)(O)CC2)C1)c1ccccn1 [Example 1.303] | < 5

Second part, the compound after the results:

Row | IC50 [nM] | SMILES
30 | < 5 | Cc1cc(C)nc(C(C)(C)NC(=O)CC2(NC(=O)c3cc(-c4ccc(F)cc4F)on3)CN(C3CC(C)(C)OC(C)(C)C3)C2)n1 [Example 1.355]
31 | 5 to 100 | CC(C)(NC(=O)CC1(NC(=O)c2cc(-c3ccc(F)cc3)on2)CN([C@H]2CC[C@@](C)(O)CC2)C1)c1ccccc1 [Example 1.089]
32 | 5 to 100 | COc1ccc(C(C)(C)NC(=O)CC2(NC(=O)c3cc(-c4ccc(F)cc4F)on3)CN([C@H]3CC[C@@](C)(O)CC3)C2)c(F)c1 [Example 1.212]
33 | 5 to 100 | CC[C@@H](NC(=O)CC1(NC(=O)c2cc(-c3ccc(F)cc3F)on2)CN(C2CCCCC2)C1)c1ccccc1 [Example 1.307]
34 | 1000 to 20000 | Cc1cc(C)nc(C(C)(C)NC(=O)CC2(NC(=O)c3cc(-c4ccc(F)cc4F)on3)CN(CC3(C)COC3)C2)n1 [Example 1.131]
35 | 5 to 100 | COc1cncc(C(C)(C)NC(=O)CC2(NC(=O)c3cc(-c4ccc(F)cc4F)on3)CN([C@H]3CC[C@@](C)(O)CC3)C2)c1 [Example 1.141]
36 | < 5 | CC(C)(NC(=O)CC1(NC(=O)c2cc(-c3ccc(F)cc3F)no2)CN([C@H]2CC[C@](C)(O)CC2)C1)c1cccc(Cl)c1 [Example 1.048]
37 | 5 to 100 | C[C@]1(O)CC[C@H](N2CC(CC(=O)NC3(c4cccc(Cl)c4)COC3)(NC(=O)c3cc(-c4ccc(F)cc4F)on3)C2)CC1 [Example 1.103]
38 | 1000 to 20000 | C[C@]1(O)CC[C@H](N2CC(CC(=O)NCc3cccc(Cl)c3)(NC(=O)c3cc(-c4ccc(F)cc4F)on3)C2)CC1 [Example 1.110]
39 | < 5 | CC(C)(NC(=O)CC1(NC(=O)c2cc(-c3ccc(F)cc3F)on2)CN([C@H]2CC[C@](C)(O)CC2)C1)c1ccccc1F [Example 1.228]
40 | 1000 to 20000 | CC(C)(NC(=O)CC1(NC(=O)c2cn(-c3ccc(F)cc3F)cn2)CN(C2CCCCC2)C1)c1cccc(Cl)c1 [Example 1.023]
41 | 1000 to 20000 | CC(C)(NC(=O)CC1(NC(=O)c2cc(-c3ccc(F)cc3F)on2)CN(C2CCCCC2)C1)c1ccc(F)cc1F [Example 1.263]
42 | 5 to 100 | O=C(CC1(NC(=O)c2cc(-c3ccc(F)cc3F)on2)CN(C2CCCCC2)C1)NC1(c2ccccc2)COC1 [Example 1.320]
43 | 5 to 100 | CC(C)CN1CC(CC(=O)NC(C)(C)c2cccc(Cl)c2)(NC(=O)c2nnc(-c3ccc(F)cc3F)s2)C1 [Example 1.040]
